“Also recorded” adds a separate entry of the source. Where no end group is shown, it is not given here.
What was measured:
[1] = test system: GPR162; experiment: Co-immunoprecipitation of CART and GPR162 in INS-1 832/13 cells; type: binding, rat; details: 10^-7M CARTp55-102, 30 min at 4°C, BS3 cross-link, precipitation with CART antibody, GPR162 blot; n = 3 biological replicates
Method: INS-1 832/13 cell lysates were incubated with 10^−7M CARTp55-102 for 30 min at 4°C and then cross-linked with 1 mM BS[3] for 30 min at room temperature, then precipitated using biotin-labelled CART antibody (code H003-62, dilution 1:5000, Phoenix Pharmaceuticals) bound to streptavidin-coated magnetic Dynabeads (Thermo Fisher). Cells lysates were then washed five times in ice-cold PBS and membrane proteins were extracted using MemPER Plus (Thermo Scientific). Protein concentration was then measured using BCA assay (BioRad, Hercules, CA) and 20 μg loaded on a 10% Mini-PROTEAN TGX Stain-Free gel (BioRad). After electrophoresis (200 V for 40 min) and transfer, the PVDF membrane was blocked in TBS-T with 5% fat free dry milk. Primary antibody (anti-rabbit GPR162, code TA331838, 1:100 dilution, Origene, Rockville, MD) was dissolved in 1XTBS-T with 5% BSA (overnight at 4°C). Secondary antibody (anti-rabbit IgG; 1:2500 dilution) was diluted in 1XTBS-T with 5% dry milk. All wash steps were for 10 min in 1XTBS-T.

[2] = test system: GPR162; experiment: Proximity ligation assay (PLA) CART-GPR162 in INS-1 832/13 cells; type: binding, rat
Method: (§1) INS-1 832/13 cells were seeded in 8-well tissue culture chambers (Sarstedt, Nümbrecht, Germany). 10^−7M rat CARTp55-102 (Phoenix Pharmaceuticals, Burlingame, CA) was added to fresh media and cells were incubated for 5 min in a humidified atmosphere (37°C, 5% CO2). Cells were rinsed quickly in ice-cold 1XPBS and then washed twice with ice-cold PBS. Cells were then fixed for 20 min in 4% paraformaldehyde, washed 2 × 10 min in 1XPBS and permeabilized for 15 min in PBS +0.25% Triton X-100. Proximity ligation assay (PLA) (DuoLink In situ Red Starter Kit Goat/Rabbit, Sigma Aldrich) was performed according to the instructions provided by the manufacturers. The following antibody combinations were used for the PLA: goat anti-GPR162 (sc-138323, dilution 1:500, Santa Cruz) with rabbit anti-CART (code 2059A, dilution 1:5000, kindly provided by Dr. Jes T. Clausen, Novo Nordisk, Måløv, Denmark), and goat anti-CART (code sc-18068, dilution 1:400, Santa Cruz) with rabbit anti-GPR162 (code PA5-33655, dilution 1:500, Thermo Scientific). Anti-rabbit GPR160 (code PA5-33650) was combined with anti-goat CART (code sc-18068 from Santa Cruz). Anti-rabbit GNA13 (PA5-100644) was combined with anti-goat GPR162 (sc-138323). Negative controls were omission of both antibodies and the combination of the CART antibody with an antibody toward a receptor with a known ligand. […]

[3] = test system: GIP receptor; experiment: Proximity ligation assay (PLA) CART-GIP receptor (specificity control); type: binding, rat; details: control experiment, goat anti-CART with rabbit anti-GIP receptor
Method: as §1

[4] = test system: INS-1 832/13 cells; experiment: Whole-cell capacitance measurement (exocytosis), patch-clamp; type: cell-based, rat
Method: Whole-cell capacitance measurement was performed in INS-1 832/13 cells using HEKA EPC10 patch-clamp amplifiers with the software Suite Pulse + X-Chart Extension (version 8.6 or later; HEKA, Lambrecht-Pfalz, Germany) as previously described.[40] Briefly, INS-1 832/13 cells were seeded in Nunc plastic petri dishes one day prior to the measurement. The intracellular pipette solution contained 125 mM Cs-glutamate, 10 mM CsCl, 10 mM NaCl, 1 mM MgCl2, 5 mM HEPES, 3 mM Mg-ATP, 0.1 mM cAMP and 0.05 mM EGTA (pH 7.2 with CsOH). The perfusing extracellular solution was composed of 118 mM NaCl, 20 mM tetraethylammonium chloride, 5.6 mM KCl, 2.6 mM CaCl2, 1.2 mM MgCl2, 5 mM HEPES and 5 mM glucose (pH 7.4), and the temperature was maintained at 32°C.

[5] = test system: rodent and human islets; details: in vivo and in vitro/ex vivo; cited from earlier work
Excerpt: However, much earlier, a fragment of the CART peptide was identified in extracts of sheep hypothalamus.[2] CART was later found to be expressed also in pancreatic islet cells and in nerve fibers innervating the islets.[3]^,[4]^,[5] […] Since then, multiple biological effects of CART have been established.[4]^,[7] […] However, the identity of the CART receptor mediating this effect in beta cells is unknown to date.[15] Here, we provide evidence for GPR162 as a CART receptor in beta cells.

[6] = test system: AtT20 cells; details: cited from earlier work
Excerpt: However, much earlier, a fragment of the CART peptide was identified in extracts of sheep hypothalamus.[2] CART was later found to be expressed also in pancreatic islet cells and in nerve fibers innervating the islets.[3]^,[4]^,[5] […] Since then, multiple biological effects of CART have been established.[4]^,[7] Among them is the effect of CART on islet hormone secretion fr ...

[7] = test system: KATO III cells; details: KATO III cells, RNA interference of Gpr160; cited from earlier work
Excerpt: When studying neuropathic pain, Yosten et al.[11] found GPR160 to be necessary for CARTp-mediated cell activation in cell culture. […] Information on GPR160 is scarce, but it has been reported to be a potential marker for prostate cancer,[24] where it is involved in apoptosis and cell-cycle arrest.[25] […] Recently, the notion of GPR160 being the ...

[8] = test system: PC-12 cells; details: RNA interference of Gpr160; cited from earlier work
Excerpt: (§2) When studying neuropathic pain, Yosten et al.[11] found GPR160 to be necessary for CARTp-mediated cell activation in cell culture. […] However, whether GPR160 is a receptor for CART in the b ...

[9] = test system: dorsal horn of the spinal cord; details: intrathecal injections; cited from earlier work
Excerpt: as §2

Substance: CARTp55-102: Rat, mouse CARTp55-102 (Phoenix Pharmaceuticals, Cat#003-62); human form Cat#003-60; cocaine- and amphetamine-regulated transcript peptide (IPIYEKKYGQVPMCDAGEQCAVRKGARIGKLCDCPRGTSCNSFLLKCL; ends and bridges not checked; cysteine pairing not given here)
- Co-immunoprecipitated GPR162 [1]: stronger binding for GPR162 in the CARTp-treated cells than the binding observed in control cells
- CART-GPR162 interaction (PLA) ([2]; 10^-7M rat CARTp55-102, 5 min, 37°C, n = 8): confirmed an interaction between GPR162 and CART
- Reduction of CART-GPR162 interaction (PLA) in Gpr162 siRNA cells ([2]; Gpr162 siRNA vs control cells, 10^-7M CARTp55-102, n = 8, p < 0.005): 90%
- CART-GIP receptor interaction (PLA control) [3]: no interaction was found between CART and the GIP receptor
- CART-induced increase in capacitance / exocytosis after Gpr162 KD ([4]; Gpr162 KD cells, 10^-7M CARTp55-102 1 h, n = 13-14 cells): abolished; also recorded: near-complete abolishment
- Increase in capacitance ([4]; control cells, 10^-7M CARTp55-102 for 1 h, 5 mM glucose, 32°C, n = 17 cells): approximately 1.3 -fold
- Glucagon secretion [5]: reduces glucagon secretion
- Insulin secretion [5]: increases insulin secretion
- Displacement of radiolabeled CART [6]: radiolabeled CART to be displaced by CARTp55-102
- c-FOS expression after Gpr160 RNA interference [7]: RNA interference of Gpr160 prevented CART from activating c-FOS expression
- ERK phosphorylation after Gpr160 RNA interference [8]: RNA interference of Gpr160 prevented CART from activating c-FOS expression and phosphorylation of ERK in vitro in KATO III cells and PC-12 cells, respectively
- Phosphorylation of ERK and CREB [9]: induced phosphorylation of ERK and CREB

Reference: publication PMC10709007, “GPR162 is a beta cell CART receptor” (iScience, 2023)
